# Results: patent US8629168B2, “Benzoxazoles and oxazolopyridines being useful as janus kinases inhibitors” (priority 2006, dated 2014)
# Experiments:
# [1] = target: T1, GST-JAK2(808-1132) (Homo sapiens, UniProt O60674); experiment: EPK JAK/TYK-kinase family profiling assay (Caliper mobility shift), JAK2; type: biochemical; settings: Caliper mobility shift assay of Example 187, 20 μM ATP, read-out: IC50 with Test in present Example
# T1 construct: GST-JAK2(808-1132) is purchased from Invitrogen; purchased Invitrogen (Carlsbad, USA) #4288
# Summary of the method: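 Caliper mobility-shift assay with the GST-tagged kinase domain and a fluorescently labeled peptide substrate plus ATP, run 60 min at 30° C and then stopped with EDTA buffer. Turnover was taken as the substrate/product ratio. Compounds were tested at eight final concentrations from 10 to 0.003 μM.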
# [2] = target: T2, GST-JAK2 (Homo sapiens, UniProt O60674); experiment: JAK2 kinase assay of the general description (alternative method, flash plate); type: biochemical; settings: 1.0 μM ATP, read-out: IC50 with test in general description (named “alternative method to that given in the examples”) (“flash plate”)
# T2 construct: the amino acid domain ASP751-VAL1129 of the JAK2 protein
# Method: Baculovirus including the amino acid domain ASP751-VAL1129 of the JAK2 protein is obtainable by ProQinase, Freiburg, Germany. The virus is scaled up as following: Virus containing media is collected from the transfected cell culture and used for infection to increase its titer. Virus containing media obtained after two rounds of infection is used for large-scale protein expression. For large-scale protein expression 100 cm^2 round tissue culture plates are seeded with 5×10^7 cells/plate and infected with 1 mL of virus-containing media (approx. 5 MOIs). After 3 days the cells are scraped off the plate and centrifuged at 500 rpm for 5 min. Cell pellets from 10-20, 100 cm^2 plates, are re-suspended in 50 mL of ice-cold lysis buffer (25 mMTris-HCl, pH7.5, 2 mMEDTA, 1% NP-40, 1 mM DTT, 1 mMP MSF). The cells are stirred on ice for 15 min and then centrifuged at 5000 rpms for 20 min. The protein is purified by loading the centrifuged cell lysate onto a 2 mL glutathione-sepharose column and washed three times with 10 mL of 25 mM Tris-HCl, pH 7.5, 2 mM EDTA, 1 mM DTT, 200 mM NaCl. The GST-tagged proteins are then eluted by 10 applications (1 mL each) of 25 mM Tris-HCl, pH 7.5, 10 mM reduced-glutathione, 100 mM NaCl, 1 mM DTT, 10% Glycerol and stored at −70° C.
# Cancer Cell; 5: 231-239]. The test compound is dissolved in DMSO (10 mM) and stored at −20° C. Serial dilutions are freshly made in DMSO and are […] concentrated than test solutions (“pre-dilution plates”). They are further diluted with pure water to yield “master plates” containing 3 times concentrated test solutions in 3% DMSO. The final volume of the assay is 30 μL containing 10 μL of test solution (1% DMSO), 10 μL assay mix including the assay components described by Garcia-Echeverria (2004) and in the following section as well as 10 μL enzyme. The pipetting steps can be programmed to be performed either on the MultiPROBE Iix, MultiPROBE IILx or HamiltonSTAR robots in the 96 well format.
# The protein kinase assays are carried as described in details by Garcia-Echeverria (see above). The assay for JAK2 is carried out in 96-well plates at ambient temperature for 10 min (filter-biding method) or 30 min (flash plates) in a finial volume of 30 μL including the following components: 300 ng of GST-JAK2, 20 mM Tris-HCl, pH 7.5, 1.0 mM MnCl2, 10 mM MgCl2, 1 mM DTT, 3 μg/mL poly(Glu, Tyr) 4:1, 1% DMSO and 1.0 μM ATP (γ-[^33P]-ATP 0.1 μCi); The assays are terminated by the addition of 20 μl of 125 mM EDTA. The capturing of the phosphorylated peptides by the filter-binding method is performed as following: 40 μL of the reaction mixture are transferred onto Immobilon-PVDF membranes previously soaked for 5 min with methanol, rinsed with water, then soaked for 5 min with 0.5% H3PO4 and mounted on vacuum manifold with disconnected vacuum source. After spotting all samples, vacuum is connected and each well rinsed with 200 μl 0.5% H3PO4. Free membranes are removed and washed 4× on a shaker with 1.0% H3PO4, once with ethanol. Membranes are counted after drying at ambient temperature, mounting in Packard TopCount 96-well frame, and addition of 10 μl/well of Microscint. The plates are eventually sealed and counted in a microplate scintillation counter (TopCount NXT, TopCount NXT HTS, PerkinElmer, Brussels, Belgium).
# The assays for the flash plate method is carried out in a total volume of 30 μL at RT in conventional 96-well flash plates. The reaction is stopped after 30 min by the addition of 20 μL of 125 mM EDTA The assay plates are then washed three times with PBS and dried at room temperature. The plates are sealed and counted in a microplate scintillation counter (TopCount NXT, TopCount NXT HTS). IC50 values are calculated by linear regression analysis of the percentage inhibition of the compound either in duplicate, at four concentrations (usually 0.01, 0.1, 1 and 10 μM) or as 8 single point IC50 starting at 10 μM following by 1:3 dilutions.
# T2 sequence (O60674 751-1129): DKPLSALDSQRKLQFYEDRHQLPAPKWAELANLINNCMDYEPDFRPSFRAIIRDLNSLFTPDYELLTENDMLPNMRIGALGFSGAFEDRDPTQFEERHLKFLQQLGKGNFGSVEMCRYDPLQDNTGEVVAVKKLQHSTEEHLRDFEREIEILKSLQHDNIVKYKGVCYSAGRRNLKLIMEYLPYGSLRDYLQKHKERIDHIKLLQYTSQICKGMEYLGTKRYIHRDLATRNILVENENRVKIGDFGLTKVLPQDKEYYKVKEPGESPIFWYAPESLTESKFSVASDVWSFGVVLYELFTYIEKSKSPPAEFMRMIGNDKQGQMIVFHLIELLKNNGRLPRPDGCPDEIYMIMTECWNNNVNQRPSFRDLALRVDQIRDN
# T1 sequence (O60674 808-1132): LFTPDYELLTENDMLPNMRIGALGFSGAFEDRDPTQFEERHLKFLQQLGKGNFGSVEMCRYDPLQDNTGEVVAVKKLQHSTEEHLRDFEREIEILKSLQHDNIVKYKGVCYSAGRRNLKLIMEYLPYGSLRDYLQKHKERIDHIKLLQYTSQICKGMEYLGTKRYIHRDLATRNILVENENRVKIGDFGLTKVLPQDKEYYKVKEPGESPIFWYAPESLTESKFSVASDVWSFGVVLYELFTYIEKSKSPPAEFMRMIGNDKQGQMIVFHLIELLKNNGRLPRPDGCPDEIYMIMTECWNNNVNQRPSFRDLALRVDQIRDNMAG
SMILES,IC50 [1] [nM],IC50 [2] [nM],melting point [°C]
"COc1cc(Nc2nc3cccc(-c4ccc(S(=O)(=O)N5CCOCC5)cc4)c3o2)cc(OC)c1OC [Example 23, {7-[4-(Morpholine-4-sulfonyl)-phenyl]-benzooxazol-2-yl}-(3,4,5-trimethoxy-phenyl)-amine]",,190,201 to 203
"COc1cc(Nc2nc3cccc(-c4cccc(C)c4)c3o2)cc(OC)c1OC [Example 1, (7-m-Tolyl-benzooxazol-2-yl)-(3,4,5-trimethoxy-phenyl)-amine]",,337,155 to 158
"Nc1ccc(-c2cccc3nc(Nc4ccc(N5CCOCC5)cc4)oc23)cc1 [Example 40, [7-(4-Aminophenyl)-benzooxazol-2-yl]-(4-morpholin-4-yl-phenyl)-amine]",,1100,241 to 243
"COc1cc(Nc2nc3ccnc(-c4ccc(S(N)(=O)=O)cc4)c3o2)cc(OC)c1OC [Example 38, 4-[2-(3,4,5-Trimethoxy-phenylamino)-oxazolo[5,4-c]pyridin-4-yl]-benzenesulfonamide]",310,450,> 280
"COc1cccc(-c2cccc3nc(Nc4ccc(N5CCOCC5)cc4)oc23)c1 [Example 39, [7-(3-Methoxy-phenyl)-benzooxazol-2-yl]-(4-morpholin-4-yl-phenyl)-amine]",,1200,180 to 182
"Nc1cccc(-c2cccc3nc(Nc4ccc(N5CCOCC5)nc4)oc23)c1 [Example 42, [7-(3-Amino-phenyl)-benzooxazol-2-yl]-(6-morpholin-4-yl-pyridin-3-yl)-amine]",,1200,235 to 237
"COc1cc(Nc2nc3cccc(-c4ccc(C)c(N)c4)c3o2)cc(OC)c1OC [Example 13, [7-(3-Amino-4-methyl-phenyl)-benzooxazol-2-yl]-(3,4,5-trimethoxy-phenyl)-amine]",,174,188 to 190
"COc1cc(Nc2nc3ccnc(-c4cccc(N)c4)c3o2)cc(OC)c1OC [Example 37, [4-(3-Amino-phenyl)-oxazolo[5,4-c]pyridin-2-yl]-(3,4,5-trimethoxy-phenyl)-amine]",,240,120 to 126
"COc1ccccc1-c1cccc2nc(Nc3cc(OC)c(OC)c(OC)c3)oc12 [Example 5, [7-(2-Methoxy-phenyl)-benzooxazol-2-yl]-(3,4,5-trimethoxy-phenyl)-amine]",,150,185 to 187
"COc1cc(Nc2nc3cccc(-c4ccc5ncccc5c4)c3o2)cc(OC)c1OC [Example 15, (7-Quinolin-6-yl-benzooxazol-2-yl)-(3,4,5-trimethoxy-phenyl)-amine]",,570,187 to 190
"COc1cc(Nc2nc3cccc(-c4cccnc4)c3o2)cc(OC)c1OC [Example 3, (7-Pyridin-3-yl-benzooxazol-2-yl)-(3,4,5-trimethoxy-phenyl)-amine]",,583,165 to 170
"COc1cc(Nc2nc3cccc(-c4cccc(NC(C)=O)c4)c3o2)cc(OC)c1OC [Example 28, N-{3-[2-(3,4,5-Trimethoxy-phenylamino)-benzooxazol-7-yl]-phenyl}-acetamide]",,310,170 to 172

# These reach a lower IC50 [2]. Values come first.
IC50 [1] [nM],IC50 [2] [nM],melting point [°C],SMILES
19,79,258 to 259,"CNC(=O)c1ccc(-c2cccc3nc(Nc4cc(OC)c(OC)c(OC)c4)oc23)cc1 [Example 24, N-Methyl-4-[2-(3,4,5-trimethoxy-phenylamino)-benzooxazol-7-yl]-benzamide]"
19,16,260 to 262,"CNS(=O)(=O)c1ccc(-c2cccc3nc(Nc4cc(OC)c(OC)c(OC)c4)oc23)cc1 [Example 21, N-Methyl-4-[2-(3,4,5-trimethoxy-phenylamino)-benzooxazol-7-yl]-benzenesulfonamide]"
35,93,> 280,"COc1cc(Nc2nc3cccc(-c4ccc(C(N)=O)cc4)c3o2)cc(OC)c1OC [Example 16, 4-[2-(3,4,5-Trimethoxy-phenylamino)-benzooxazol-7-yl]-benzamide]"
10,10,247 to 252,"COc1cc(Nc2nc3cccc(-c4ccc(S(N)(=O)=O)cc4)c3o2)cc(OC)c1OC [Example 18, 4-[2-(3,4,5-Trimethoxy-phenylamino)-benzooxazol-7-yl]-benzenesulfonamide]"
12,40,205 to 207,"COc1cc(Nc2nc3cccc(-c4ccc(S(C)(=O)=O)cc4)c3o2)cc(OC)c1OC [Example 17, [7-(4-Methanesulfonyl-phenyl)-benzooxazol-2-yl]-(3,4,5-trimethoxy-phenyl)-amine]"
,140,230 to 233,"COc1cc(Nc2nc3cccc(-c4ccc(S(=O)(=O)N(C)C)cc4)c3o2)cc(OC)c1OC [Example 22, N,N-Dimethyl-4-[2-(3,4,5-trimethoxy-phenylamino)-benzooxazol-7-yl]-benzenesulfonamide]"
,99,167 to 170,"COc1cccc(-c2cccc3nc(Nc4cc(OC)c(OC)c(OC)c4)oc23)c1 [Example 4, [7-(3-Methoxy-phenyl)-benzooxazol-2-yl]-(3,4,5-trimethoxy-phenyl)-amine]"
,132,145 to 170,"COc1cc(Nc2nc3cccc(-c4cccc(N)c4)c3o2)cc(OC)c1OC [Example 10, [7-(3-Amino-phenyl)-benzooxazol-2-yl]-(3,4,5-trimethoxy-phenyl)-amine]"
